Measurements reported in US6727206B2, “Substituted aryl ketones” (Bayer Aktiengesellschaft, priority 1999, dated 2004).
Read-outs that look alike come from different tables or passages of the source.

Experiments:
[1] = logP determination by HPLC on reversed-phase column (C 18), EEC directive 79/831 Annex V.A8; type: physicochemical; conditions: for logP: Table 1; label a): acidic range
Method: Temperature: 43° C. (a) Mobile phases for the determination in the acidic range: 0.1% aqueous phosphoric acid, acetonitrile; linear gradient of 10% acetonitrile to 90% acetonitrile—the corresponding data in Table 1 are labelled ^a). (b) Mobile phases for the determination in the neutral range: 0.01 molar aqueous phosphate buffer solution, acetonitrile, linear gradient from 10% acetonitrile to 90% acetonitrile—the corresponding data in Table 1 are labelled ^b).

[2] = test system: crop plants, such as cotton, maize, soya and wheat; assay: Pre-emergence test, tolerance by crop plants; type: in vivo; conditions: rated after three weeks
Excerpt: (§1) Seeds of the test plants are sown in normal soil.
(§2) After three weeks, the degree of damage to the plants is rated in % damage in comparison to the development of the untreated control.

[3] = test system: weeds; assay: Post-emergence test, activity against weeds; type: in vivo; conditions: test plants of 5 to 15 cm sprayed, rated after three weeks
Excerpt: as §2

[4] = test system: weeds; assay: Pre-emergence test, activity against weeds; type: in vivo; conditions: soil sprayed 24 hours after sowing, rated after three weeks
Excerpt: as §1, §2

[5] = test system: crop plants, such as maize; assay: Post-emergence test, tolerance by crop plants; type: in vivo; conditions: rated after three weeks
Excerpt: as §2

[6] = 0.1% aqueous phosphoric acid/acetonitrile gradient, 43° C.

Compound	logP [1, 6]	also measured
Cn1c(Sc2ccc(C(=O)C3C(=O)CCCC3=O)c(Cl)c2)nn(CC2CC2)c1=O [Example 55]	logP = 2.72^a)	–
Cn1c(S(=O)(=O)c2ccc(C(=O)C3C(=O)CCCC3=O)c(Cl)c2)n[nH]c1=O [Example 14]	logP = 1.88^a)	–
Cn1c(C(S)c2c(Cl)ccc(C(=O)C3C(=O)CCCC3=O)c2Cl)n[nH]c1=O (stereo not shown)	–	melting point: 187 °C
Cn1nc(S(=O)(=O)c2cc(C(F)(F)F)ccc2C(=O)C2C(=O)CCCC2=O)n(C)c1=O [Example 68]	logP = 1.85^a)	–
Cn1c(S(=O)(=O)Cc2c(Cl)ccc(C(=O)C3C(=O)CCCC3=O)c2Cl)n[nH]c1=O [Example 25]	logP = 1.87^a)	–
Cn1nc(SCc2cc(C(F)(F)F)ccc2C(=O)O)n(C)c1=O [II-9, 2-[(4,5-dihydro-1,4-dimethyl-5-oxo-1H-1,2,4-triazol-3-yl)-sulphanylmethyl]-4-trifluoromethyl-benzoic acid]	–	chromatographic logP ([1]; reversed-phase HPLC column (C 18), Table 2 (starting materials of formula II); label a): acidic range): 1.94
Cn1nc(Sc2ccc(C(=O)C3C(=O)CCCC3=O)c(Cl)c2)n(C)c1=O [Example 6]	logP = 2.08^a)	–
Cn1nc(S(=O)(=O)Cc2c(Cl)ccc(C(=O)C3C(=O)CCCC3=O)c2Cl)n(C)c1=O [Example 23]	logP = 2.09^a)	–
Cn1nc([S+]([O-])Cc2cc(C(F)(F)F)ccc2C(=O)C2C(=O)CCCC2=O)n(C)c1=O (stereo not shown) [Example 70]	logP = 1.95^a)	–
CCCn1nc(Sc2ccc(C(=O)C3C(=O)CCCC3=O)c(Cl)c2)n(C)c1=O [Example 49]	logP = 2.63^a)	–
CCn1nc(Sc2ccc(C(=O)C3C(=O)CCCC3=O)c(Cl)c2)n(C)c1=O [Example 47]	logP = 2.34^a)	–
Cn1c([S+]([O-])Cc2c(Cl)ccc(C(=O)C3C(=O)CCCC3=O)c2Cl)n[nH]c1=O (stereo not shown) [Example 22, 2-[2,4-dichloro-3-[(4-methyl-5-oxo-4,5-dihydro-1H-1,2,4-triazol-3-yl)-sulphinylmethyl]-benizoyl]-1,3-cyclohexanedione]	–	chromatographic logP ([1]; reversed-phase HPLC column (C 18); Table 1; label a): acidic range, 0.1% aqueous phosphoric acid/acetonitrile gradient, 43° C.): 1.6
CCn1ncc(C(=O)c2ccc(Sc3n[nH]c(=O)n3C)cc2Cl)c1O	–	melting point: 216 °C
C#CCn1nc(Sc2ccc(C(=O)C3C(=O)CCCC3=O)c(Cl)c2)n(C)c1=O [Example 53]	logP = 2.37^a)	–
C=CCn1nc(Sc2ccc(C(=O)C3C(=O)CCCC3=O)c(Cl)c2)n(C)c1=O [Example 51]	logP = 2.47^a)	–
Cn1c(Sc2cc(C(F)(F)F)ccc2C(=O)C2C(=O)CCCC2=O)n[nH]c1=O [Example 1, 2-[2-[(4-methyl-5-oxo-4,5-dihydro-1H-1,2,4-triazol-3-yl)-sulphanyl]-4-trifluoromethyl-benzoyl]-1,3-cyclohexanedione]	–	tolerance by crop plants [2]: tolerated well; activity against weeds (degree of damage) [3]: strong activity; chromatographic logP ([1]; reversed-phase HPLC column (C 18), Example 1, mobile phase range not labelled, read-out: log P): 2; activity against weeds (degree of damage) [4]: strong activity; tolerance by crop plants [5]: tolerated well
Cn1nc(Sc2cc(C(F)(F)F)ccc2C(=O)C2C(=O)CCCC2=O)n(C)c1=O [Example 15]	–	tolerance by crop plants [2]: tolerated well; activity against weeds (degree of damage) [3]: strong activity; activity against weeds (degree of damage) [4]: strong activity; tolerance by crop plants [5]: tolerated well
Cn1nc(S(=O)(=O)c2ccc(C(=O)C3C(=O)CCCC3=O)c(Cl)c2)n(C)c1=O [Example 13]	logP = 2.09^a)	–
Cn1nc(SCc2c(Cl)ccc(C(=O)C3C(=O)CCCC3=O)c2Cl)n(C)c1=O [Example 20]	logP = 2.24^a)	–
Cc1nn(C)c(O)c1C(=O)c1ccc(Sc2nn(C)c(=O)n2C)cc1Cl [Example 9]	logP = 1.34^a)	–
CCn1ncc(C(=O)c2ccc(C(F)(F)F)cc2C[S+]([O-])c2nn(C)c(=O)n2C)c1O (stereo not shown) [Example 71]	logP = 1.77^a)	–
CCn1ncc(C(=O)c2ccc(C(F)(F)F)cc2S(=O)(=O)c2nn(C)c(=O)n2C)c1O [Example 69]	logP = 1.72^a)	–
Cn1c(Sc2ccc(C(=O)C3C(=O)CCCC3=O)c(Cl)c2)nn(Cc2ccccc2)c1=O [Example 57]	logP = 3.04^a)	–
Cn1c([S+]([O-])Cc2c(Cl)ccc(C(=O)C3C(=O)CCCC3=O)c2Cl)n[nH]c1=O (stereo not shown) [Example 28]	logP = 1.61^a)	–
